# Measurements taken from patent US8397806B2, “Method for pre-treatment of subterranean sites adjacent to water injection wells” (E.I. du Pont de Nemours and Company, priority 2010, dated 2013).
# Columns and labels:
# [1] = Example 5: 10% acetic acid titration of amine-coated core sand (30.85 gr sand/amine mixture) in 100 ml brine #2, amine in solution by GC
# Description: (§1) Concentration of amines, in media and water, were analyzed by gas chromatography (GC). An Agilent Model 5890 (Agilent, Wilmington, Del.), GC equipped with a […] and a split/splitless injector, a DB-FFAP column (30 meter length×0.32 millimeter (mm) […]×0.25 micrometer particle size). […] The system was calibrated using a sample of N,N-Dimethyl-1-Dodecaneamine (Aldrich). Helium was used as the carrier gas. A temperature gradient of 50 degrees Celsius (° C.) to 250° C. at 30° C. increase per minute (min) was used.
# The same procedure outlined in Example 4 was repeated here to produce the sand/amine mixture. 30.85 grams (gr) of the sand/amine mixture was added to 100 ml of brine #2 (Table 3) to create the sand/amine/brine mixture.
# [2] = Example 2: 1N HCl titration of amine-coated core sand (38 mg amine on 10.18 gr sand) in 100 ml brine #2, amine in solution by GC; assay type: physicochemical
# Description: Helium was used as the carrier gas.
# 38 milligrams (mg) of N N-Dimethyl-1-Dodecanamine (hereafter referred to as “the amine”) was added to 10.210 gr of Pentane. This solution was added to 10.1845 gr of specific sand layers (Oa and Ob) obtained from the Schrader Bluff formation of the Milne Point Unit of the Alaskan North slope. The oil content of the sand was first removed using a mixture of methanol and toluene (50/50, volume/volume) as solvent washes. The solvent mixture was subsequently evaporated off the core sand to produce clean, dry, flowable core sand. This sand was mixed with the amine and pentane solution to produce a slurry. This slurry was thoroughly mixed and the pentane was evaporated off leaving the amine on the sand (hereafter referred to as sand/amine mixture). 100 ml of brine #2 (Table 3) was added to the sand/amine mixture to create the sand/amine/brine mixture. […] The fact that the amine was not detected underlined its strong binding to the sand particles. […] The data underlines the remarkable efficiency of an acid at ionizing and removing the amine from the sand.
# [3] = Example 4: 10% nitric acid titration of amine-coated core sand (29.065 gr sand/amine mixture) in 100 ml brine #2, amine in solution by GC
# Description: as §1
# The procedure outlined in Example 2 was used to produce the sand/amine mixture except that 519 mg of the amine, 10 gr of Pentane. and 60.062 gr of sand from the Oa and Ob layers were used. 29.065 gr of this sand/amine mixture was added to 100 ml of brine #2 (Table 3) to create the sand/amine/brine mixture. […] The concentration of the amine in the water should have been about […] if all the amine was dissolved in brine #2. […] 0.1 ml of 10 weight percent (wt %) nitric acid in water was added to this solution, and the pH and the amine concentration were measured again.
smiles,measurement,setting,value
"CCCCCCCCCCCCN(C)C [N-N-dimethyl-1-dodeanamine, N N-Dimethyl-1-Dodecanamine]",ppm N-N-dimethyl-1-dodeanamine,"[1]; sample 1, pH 8.01, +0.1 ml 10% acetic acid",63 ppm
same,ppm N-N-dimethyl-1-dodeanamine,"[1]; sample 2, pH 7.41, +0.1 ml 10% acetic acid",107 ppm
same,ppm N-N-dimethyl-1-dodeanamine,"[1]; sample 3, pH 7.4, +0.1 ml 10% acetic acid",215 ppm
same,ppm N-N-dimethyl-1-dodeanamine,"[1]; sample 4, pH 7.37, +0.1 ml 10% acetic acid",497 ppm
same,ppm N-N-dimethyl-1-dodeanamine,"[1]; sample 5, pH 7.23, +0.1 ml 10% acetic acid",512 ppm
same,ppm N-N-dimethyl-1-dodeanamine,"[1]; sample 6, pH 7.12, +0.1 ml 10% acetic acid",969 ppm
same,ppm N-N-dimethyl-1-dodeanamine,"[1]; sample 7, pH 6.98, +0.1 ml 10% acetic acid",1239 ppm
same,ppm N-N-dimethyl-1-dodeanamine,"[1]; sample 8, pH 6.89, +0.1 ml 10% acetic acid",1453 ppm
same,ppm N-N-dimethyl-1-dodeanamine,"[1]; sample 9, pH 6.75, +0.1 ml 10% acetic acid",1583 ppm
same,ppm N-N-dimethyl-1-dodeanamine,"[1]; sample 10, pH 6.56, +0.1 ml 10% acetic acid",1579 ppm
same,ppm N-N-dimethyl-1-dodeanamine,"[1]; sample 11, pH 6.39, +0.1 ml 10% acetic acid",1616 ppm
same,ppm N-N-dimethyl-1-dodeanamine,"[1]; sample 12, pH 6.4, +0.1 ml 10% acetic acid",1759 ppm
same,ppm N-N-dimethyl-1-dodeanamine,"[1]; sample 13, pH 6.02, +0.2 ml 10% acetic acid",1736 ppm
same,ppm N-N-dimethyl-1-dodeanamine,"[1]; sample 14, pH 5.4, +0.2 ml 10% acetic acid",1718 ppm
same,ppm N-N-dimethyl-1-dodeanamine,"[1]; sample 15, pH 5.04, +0.2 ml 10% acetic acid",1743 ppm
same,ppm N-N-dimethyl-1-dodeanamine,"[1]; sample 16, pH 4.86, +0.2 ml 10% acetic acid",1931 ppm
same,ppm N-N-dimethyl-1-dodeanamine,"[1]; sample 17, pH 4.73, +0.2 ml 10% acetic acid",1995 ppm
same,ppm N-N-dimethyl-1-dodeanamine,"[1]; sample 18, pH 4.61, +0.2 ml 10% acetic acid",1913 ppm
same,ppm N-N-dimethyl-1-dodeanamine,"[1]; sample 19, pH 4.52, +0.2 ml 10% acetic acid",1881 ppm
same,ppm N-N-dimethyl-1-dodeanamine,"[1]; sample 20, pH 4.43, +0.2 ml 10% acetic acid",1837 ppm
same,ppm N-N-dimethyl-1-dodeanamine,"[1]; sample 21, pH 4.36, +0.3 ml 10% acetic acid",1885 ppm
same,ppm N-N-dimethyl-1-dodeanamine,"[1]; sample start, pH 8.52, 0 ml 10% acetic acid",~67 ppm
same,pH at which complete ionization and solubilization in the water of the amine was observed,[1]; titration with 10 wt % acetic acid,< 6.7
same,First derivative (change in amine/change in pH),"[2]; sample Amine titrate 1, pH 7.37",63.75
same,N-N-dimethyl-1-dodeanamine (ppm) in slim tube effluent,"[2]; sample Amine titrate 1, pH 7.37, +0.10 ml 1N HCl",46.41 ppm
same,First derivative (change in amine/change in pH),"[2]; sample Amine titrate 2, pH 7.21",63.42
same,N-N-dimethyl-1-dodeanamine (ppm) in slim tube effluent,"[2]; sample Amine titrate 2, pH 7.21, +0.10 ml 1N HCl",59.29 ppm
same,First derivative (change in amine/change in pH),"[2]; sample Amine titrate 3, pH 7.03",24.34
same,N-N-dimethyl-1-dodeanamine (ppm) in slim tube effluent,"[2]; sample Amine titrate 3, pH 7.03, +0.10 ml 1N HCl",67.97 ppm
same,First derivative (change in amine/change in pH),"[2]; sample Amine titrate 4, pH 6.59",160.35
same,N-N-dimethyl-1-dodeanamine (ppm) in slim tube effluent,"[2]; sample Amine titrate 4, pH 6.59, +0.10 ml 1N HCl",74.38 ppm
same,First derivative (change in amine/change in pH),"[2]; sample Amine titrate 5, pH 6.13",412.18
same,N-N-dimethyl-1-dodeanamine (ppm) in slim tube effluent,"[2]; sample Amine titrate 5, pH 6.13, +0.10 ml 1N HCl",212.28 ppm
same,First derivative (change in amine/change in pH),"[2]; sample Amine titrate 6, pH 6.07",679.86
same,N-N-dimethyl-1-dodeanamine (ppm) in slim tube effluent,"[2]; sample Amine titrate 6, pH 6.07, +0.10 ml 1N HCl",288.72 ppm
same,First derivative (change in amine/change in pH),"[2]; sample Amine titrate 7, pH 6.04",−148.78
same,N-N-dimethyl-1-dodeanamine (ppm) in slim tube effluent,"[2]; sample Amine titrate 7, pH 6.04, +0.05 ml 1N HCl",273.47 ppm
same,First derivative (change in amine/change in pH),"[2]; sample Amine titrate 8, pH 5.98",119.35
same,N-N-dimethyl-1-dodeanamine (ppm) in slim tube effluent,"[2]; sample Amine titrate 8, pH 5.98, +0.05 ml 1N HCl",275.33 ppm
same,First derivative (change in amine/change in pH),"[2]; sample Amine titrate 9, pH 5.79",65.90
same,N-N-dimethyl-1-dodeanamine (ppm) in slim tube effluent,"[2]; sample Amine titrate 9, pH 5.79, +0.05 ml 1N HCl",303.31 ppm
same,First derivative (change in amine/change in pH),"[2]; sample Amine titrate 10, pH 5.39",15.17
same,N-N-dimethyl-1-dodeanamine (ppm) in slim tube effluent,"[2]; sample Amine titrate 10, pH 5.39, +0.05 ml 1N HCl",314.21 ppm
same,First derivative (change in amine/change in pH),"[2]; sample Amine titrate 11, pH 4.13",3.24
same,N-N-dimethyl-1-dodeanamine (ppm) in slim tube effluent,"[2]; sample Amine titrate 11, pH 4.13, +0.05 ml 1N HCl",328.48 ppm
same,First derivative (change in amine/change in pH),"[2]; sample Amine titrate 12, pH 3.19",11.80
same,N-N-dimethyl-1-dodeanamine (ppm) in slim tube effluent,"[2]; sample Amine titrate 12, pH 3.19, +0.05 ml 1N HCl",321.33 ppm
same,First derivative (change in amine/change in pH),"[2]; sample Amine titrate 13, pH 2.91",47.42
same,N-N-dimethyl-1-dodeanamine (ppm) in slim tube effluent,"[2]; sample Amine titrate 13, pH 2.91, +0.05 ml 1N HCl",342.88 ppm
same,First derivative (change in amine/change in pH),"[2]; sample Amine titrate 14, pH 2.74",−6.52
same,N-N-dimethyl-1-dodeanamine (ppm) in slim tube effluent,"[2]; sample Amine titrate 14, pH 2.74, +0.05 ml 1N HCl",342.67 ppm
same,First derivative (change in amine/change in pH),"[2]; sample Amine titrate 15, pH 2.61",79.86
same,N-N-dimethyl-1-dodeanamine (ppm) in slim tube effluent,"[2]; sample Amine titrate 15, pH 2.61, +0.05 ml 1N HCl",340.92 ppm
same,First derivative (change in amine/change in pH),"[2]; sample Amine titrate 16, pH 2.41",80.22
same,N-N-dimethyl-1-dodeanamine (ppm) in slim tube effluent,"[2]; sample Amine titrate 16, pH 2.41, +0.10 ml 1N HCl",369.02 ppm
same,First derivative (change in amine/change in pH),"[2]; sample Amine titrate 17, pH 2.27",2.25
same,N-N-dimethyl-1-dodeanamine (ppm) in slim tube effluent,"[2]; sample Amine titrate 17, pH 2.27, +0.10 ml 1N HCl",368.19 ppm
same,First derivative (change in amine/change in pH),"[2]; sample Amine titrate 18, pH 2.18",7.51
same,N-N-dimethyl-1-dodeanamine (ppm) in slim tube effluent,"[2]; sample Amine titrate 18, pH 2.18, +0.10 ml 1N HCl",369.54 ppm
same,First derivative (change in amine/change in pH),"[2]; sample Amine titrate 19, pH 2.10",0.12
same,N-N-dimethyl-1-dodeanamine (ppm) in slim tube effluent,"[2]; sample Amine titrate 19, pH 2.10, +0.10 ml 1N HCl",369.47 ppm
same,N-N-dimethyl-1-dodeanamine (ppm) in slim tube effluent,"[2]; sample Amine titrate 20, pH 2.04, +0.10 ml 1N HCl",369.56 ppm
same,N-N-dimethyl-1-dodeanamine (ppm) in slim tube effluent,"[2]; sample Amine titrate st, pH 8.14, 0.00 ml 1N HCl",0.00 ppm
same,N-N-dimethyl-1-dodeanamine (ppm) in slim tube effluent,"[2]; sample Amine titrate st, pH 8.14, 0.00 ml 1N HCl, listed as N N-Dimethyl-1-Dodecanamine",< 1 ppm
same,pH at which complete ionization and solubilization of the amine in the water was observed,[2]; titration with 1N HCl,< 6.0
same,ppm N-N-dimethyl-1-dodeanamine,"[3]; sample 1, pH 8.13, +0.1 ml 10% HNO3",110 ppm
same,ppm N-N-dimethyl-1-dodeanamine,"[3]; sample 2, pH 7.72, +0.1 ml 10% HNO3",211 ppm
same,ppm N-N-dimethyl-1-dodeanamine,"[3]; sample 3, pH 7.42, +0.1 ml 10% HNO3",216 ppm
same,ppm N-N-dimethyl-1-dodeanamine,"[3]; sample 4, pH 7.25, +0.1 ml 10% HNO3",235 ppm
same,ppm N-N-dimethyl-1-dodeanamine,"[3]; sample 5, pH 7.2, +0.1 ml 10% HNO3",540 ppm
same,ppm N-N-dimethyl-1-dodeanamine,"[3]; sample 6, pH 7.29, +0.1 ml 10% HNO3",745 ppm
same,ppm N-N-dimethyl-1-dodeanamine,"[3]; sample 7, pH 7.33, +0.1 ml 10% HNO3",1153 ppm
same,ppm N-N-dimethyl-1-dodeanamine,"[3]; sample 8, pH 7.29, +0.1 ml 10% HNO3",1210 ppm
same,ppm N-N-dimethyl-1-dodeanamine,"[3]; sample 9, pH 7.18, +0.1 ml 10% HNO3",1327 ppm
same,ppm N-N-dimethyl-1-dodeanamine,"[3]; sample 10, pH 7.11, +0.1 ml 10% HNO3",1315 ppm
same,ppm N-N-dimethyl-1-dodeanamine,"[3]; sample 11, pH 6.99, +0.1 ml 10% HNO3",1413 ppm
same,ppm N-N-dimethyl-1-dodeanamine,"[3]; sample 12, pH 6.85, +0.1 ml 10% HNO3",1667 ppm
same,ppm N-N-dimethyl-1-dodeanamine,"[3]; sample 13, pH 6.73, +0.1 ml 10% HNO3",1897 ppm
same,ppm N-N-dimethyl-1-dodeanamine,"[3]; sample 14, pH 6.64, +0.1 ml 10% HNO3",1853 ppm
same,ppm N-N-dimethyl-1-dodeanamine,"[3]; sample 15, pH 6.59, +0.1 ml 10% HNO3",1858 ppm
same,ppm N-N-dimethyl-1-dodeanamine,"[3]; sample 16, pH 6.28, +0.2 ml 10% HNO3",1788 ppm
same,ppm N-N-dimethyl-1-dodeanamine,"[3]; sample 17, pH 5.8, +0.2 ml 10% HNO3",1822 ppm
same,ppm N-N-dimethyl-1-dodeanamine,"[3]; sample 18, pH 3.46, +0.2 ml 10% HNO3",1975 ppm
same,ppm N-N-dimethyl-1-dodeanamine,"[3]; sample start, pH 8.28, 0 ml 10% HNO3",~85 ppm
same,pH at which complete ionization and solubilization in the water of the amine was observed,[3]; titration with 10 wt % nitric acid,< 6.7
